Reference: patent EP2857388A1, “Azoles containing sulfone” (Grünenthal GmbH, priority 2013, dated 2015)

biological target: T1, human B1R (Homo sapiens, UniProt P46663); experiment: Functional assay at bradykinin receptor 1 (B1R): Ca2+ fluorescence (Fluo-4) in FLIPR/Novostar, antagonist mode; assay type: cell-based; conditions: test substance 10 µM; CHO K1 cells stably transfected with human B1R gene (hB1R-Zellen); agonist Lys-Des-Arg9-Bradykinin at EC80; % inhibition relative to maximal achievable inhibition
T1 construct: expressed in transfected cells; host or cells: CHO K1 cells (Chinese Hamster Ovary), stably transfected
T1 sequence (P46663 1-353): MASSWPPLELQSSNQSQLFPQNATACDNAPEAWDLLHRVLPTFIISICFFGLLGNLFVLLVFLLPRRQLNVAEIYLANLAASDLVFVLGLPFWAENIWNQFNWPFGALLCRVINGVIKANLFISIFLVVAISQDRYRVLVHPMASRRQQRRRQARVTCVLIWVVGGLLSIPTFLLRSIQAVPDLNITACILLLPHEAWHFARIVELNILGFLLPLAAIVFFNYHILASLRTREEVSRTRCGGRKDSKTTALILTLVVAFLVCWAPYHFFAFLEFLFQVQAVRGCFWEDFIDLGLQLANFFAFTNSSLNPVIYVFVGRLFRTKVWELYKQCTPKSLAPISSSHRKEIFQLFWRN
Experimental: Die agonistische bzw. antagonistische Wirkung von Substanzen kann am Bradykinin Rezeptor 1 (B1R) der Spezies Mensch und Ratte mit ektopisch exprimierenden Zelllinien (CHO K1 Zellen) und mit Hilfe eines Ca^2+-sensitiven Farbstoffs (Fluo-4) im Fluorescent Imaging Plate Reader (FLIPR) quantifiziert werden. Die Angabe in % Aktivierung wird bezogen auf das Ca^2+-Signal nach Zugabe von Lys-Des-Arg^9-Bradykinin ([…]), bzw. Des-Arg^9-Bradykinin (100 nM). Antagonisten führen zu einer Unterdrückung des Ca^2+-Einstroms nach der Zugabe des Agonisten. Angegeben werden % Inhibition im Vergleich zu der maximal erreichbaren Inhibition.
Die agonistische bzw. antagonistische Wirkung von Substanzen kann am Bradykinin Rezeptor 1 (B1R) der Spezies Mensch und Ratte mit folgendem Assay bestimmt werden. Gemäß diesem Assay wird der intrazelluläre Ca^2+-Anstieg nach Gabe eines B1 R Agonisten mit Hilfe eines Ca^2+-sensitiven Farbstoffs (Typ Fluo-4, Molecular Probes Europe BV, Leiden NL) im Fluorescent Imaging Plate Reader (FLIPR, Molecular Devices, Sunnyvale, USA) und/oder im Novostar (BMG Labtech GmbH, Offenburg, DE) quantifiziert.
Es werden Chinese Hamster Ovary Zellen (CHO K1 Zellen) verwendet, die stabil mit dem humanen B1 R-Gen (hB1R-Zellen) bzw. dem B1 R-Gen der Ratte (rB1R-Zellen) transfiziert sind. Für funktionelle Untersuchungen werden diese Zellen auf schwarze 96-Loch-Platten mit klarem Boden (BD Biosciences, Heidelberg, DE oder Greiner, Frickenhausen, DE) in einer Dichte von 20.000 - 35.000 Zellen/Loch ausplattiert. Über Nacht werden die Zellen bei 37°C und 5 % CO2 in Kulturmedium (hB1 R-Zellen: Nutrient Mixture Ham's F12, Gibco Invitrogen GmbH, Karlsruhe, Deutschland oder DMEM, Sigma-Aldrich, Taufkirchen, Deutschland; rB1R-Zellen: D-MEM/F12, Gibco Invitrogen GmbH, Karlsruhe, DE) mit 10 Vol-% FBS (Fetal bovine serum, Gibco Invitrogen GmbH, Karlsruhe, DE oder PAN Biotech GmbH, Aidenbach, DE) belassen. Am folgenden Tag werden die Zellen mit 2,13 µM Fluo-4 (Molecular Probes Europe BV, Leiden, NL) in HBSS-Puffer (Hank's buffered saline solution, Gibco Invitrogen GmbH, Karlsruhe, DE) mit 2,5 mM Probenecid (Sigma-Aldrich, Taufkirchen, DE) und 10 mM HEPES (Sigma-Aldrich, Taufkirchen, DE) für 60 min bei 37°C beladen. Anschließend werden die Platten 2 x mit HBSS-Puffer gewaschen und mit HBSS-Puffer versetzt, der zusätzlich 0,1 % BSA (bovines Serumalbumin; Sigma-Aldrich, Taufkirchen, Deutschland), 5,6 mM Glucose und 0,05 % Gelatine (Merck KGaA, Darmstadt, DE) enthält. Nach einer weiteren Inkubation von 20 Minuten bei RT werden die Platten zur Ca^2+-Messung im FLIPR oder Novostar eingesetzt. Alternativ wird mit Puffer A (15 mM HEPES, 80 mM NaCl, 5 mM KCI, 1,2 mM CaCl2, 0,7 mM MgSO4, 2g/L Glucose, 2,5 mM Probenecid) gewaschen und mit Puffer A versetzt mit 2,5 µM Fluo-4 und 0,025 % Pluronic F127 (Sigma-Aldrich, Taufkirchen, DE) beladen. Danach werden die Zellen 2 x mit Puffer A gewaschen und für 30 Minuten mit Puffer A, der zusätzlich 0,05 % BSA und 0,05 % Gelatine enthält bei RT inkubiert und danach zur Ca^2+-Messung im FLIPR oder Novostar eingesetzt.
Die Ca^2+-abhängige Fluoreszenz wird dabei vor und nach Zugabe von Substanzen gemessen (λex = 488 nm, λem = 540 nm). Die Quantifizierung erfolgt durch die Messung der höchsten Fluoreszenzintensität (FC, Fluorescence Counts) über die Zeit.
Das FLIPR-Protokoll besteht aus 2 Substanzzugaben, die im FLIPR pipettiert werden. Bei Messungen im Novostar wird nur die zweite Substanzzugabe im Gerät pipettiert. Beide Geräte messen die Fluoreszenzintensität über die Zeit. Zunächst werden Testsubstanzen (10 µM) auf die Zellen pipettiert und der intrazelluläre Ca^2+-Anstieg mit der Kontrolle (hB1 R: Lys-Des-Arg^9-Bradykinin >= 50 nM; rB1 R: Des-Arg^9-Bradykinin >= 1 µM) verglichen. Daraus ergibt sich die Angabe in % Aktivierung bezogen auf das Ca^2+-Signal nach Zugabe von Lys-Des-Arg^9-Bradykinin (>= 50 nM), bzw. Des-Arg^9-Bradykinin (>=1 µM). Nach 6-20 Minuten Inkubation werden Lys-Des-Arg^9-Bradykinin (hB1 R) bzw. […]

| % Inhibierung (human B1R) bei 10 µM | Compound |
| --- | --- |
| 61% | 2-[3-[[(2,3-Dichlor-phenyl)sulfonyl]-methyl]-[1,2,4]oxadiazol-5-yl]-N-(1,3,3-trimethyl-piperidin-4-yl)-acetamid [CC-114] |
| 98% | 2-[3-[[(2-Chlor-6-methyl-phenyl)sulfonyl]-methyl]-[1,2,4]oxadiazol-5-yl]-N-(3,3-dimethyl-piperidin-4-yl)-acetamid [CC-120] |
| 99% | 2-[3-[[(2-Chlor-6-methyl-phenyl)sulfonyl]-methyl]-[1,2,4]oxadiazol-5-yl]-N-(4-dimethylamino-cyclohexyl)-acetamid [CC-128] |
| 90% | 2-[3-[[(4-Chlor-2,5-dimethyl-phenyl)sulfonyl]-methyl]-[1,2,4]oxadiazol-5-yl]-N-cyclopropyl-N-(4-dimethylamino-cyclohexyl)-acetamid [CC-113] |

same assay, conditions: test substance 10 µM; CHO K1 cells stably transfected with human B1R gene (hB1R-Zellen); agonist Lys-Des-Arg9-Bradykinin at EC80; % inhibition relative to maximal achievable inhibition; read-out: % Inhibierung (human B1R) bei 10 µM

| inhibition at 10 µM | Compound |
| --- | --- |
| 100% | COc1cc(C)c(S(=O)(=O)Cc2noc(C(=O)N[C@H]3CCC[C@@H](N4CCN(C)CC4)C3)n2)c(C)c1 [CC-01, 3-[[(4-Methoxy-2,6-dimethyl-phenyl)sulfonyl]-methyl]-N-[(1S,3R)-3-(4-methyl-piperazin-1-yl)-cyclohexyl]-[1,2,4]oxadiazol-5-carbonsäure amid] |
| 86% | COc1cc(C)c(S(=O)(=O)Cc2noc(C(=O)NC3CCN(c4ccc(C(F)(F)F)cn4)CC3)n2)c(C)c1 [CC-02, 3-[[(4-Methoxy-2,6-dimethyl-phenyl)sulfonyl]-methyl]-N-[1-[5-(trifluormethyl)-pyridin-2-yl]-piperidin-4-yl]-[1,2,4]oxadiazol-5-carbonsäure amid] |
| 91% | COc1cc(C)c(S(=O)(=O)Cc2noc(CC(=O)NC3CCN(c4ccc(C(F)(F)F)cn4)CC3)n2)c(C)c1 [CC-03, 2-[3-[[(4-Methoxy-2,6-dimethyl-phenyl)sulfonyl]-methyl]-[1,2,4]oxadiazol-5-yl]-N-[1-[5-(trifluor-methyl)-pyridin-2-yl]-piperidin-4-yl]-acetamid] |
| 100% | COc1cc(C)c(S(=O)(=O)Cc2noc(C(=O)NC3CCC(N(C)C)CC3)n2)c(C)c1 (centres unmarked) [CC-04, N-(4-Dimethylamino-cyclohexyl)-3-[[(4-methoxy-2,6-dimethyl-phenyl)sulfonyl]-methyl]-[1,2,4]oxa-diazol-5-carbonsäure amid] |
| 100% | COc1cc(C)c(S(=O)(=O)Cc2noc(CC(=O)NC3CCC(N(C)C)CC3)n2)c(C)c1 (centres unmarked) [CC-05, N-(4-Dimethylamino-cyclohexyl)-2-[3-[[(4-methoxy-2,6-dimethyl-phenyl)sulfonyl]-methyl]-[1,2,4]oxadiazol-5-yl]-acetamid] |
| 100% | COc1cc(C)c(S(=O)(=O)Cc2noc(CC(=O)N(C)CCC3CCN(c4ccncc4)CC3)n2)c(C)c1 [CC-06, 2-[3-[[(4-Methoxy-2,6-dimethyl-phenyl)sulfonyl]-methyl]-[1,2,4]oxadiazol-5-yl]-N-methyl-N-[2-(1-pyridin-4-yl-piperidin-4-yl)-ethyl]-acetamid] |
| 54% | Cc1cccc(Cl)c1S(=O)(=O)Cc1noc(C(=O)NC2CCN(c3ccc(C(F)(F)F)cn3)CC2)n1 [CC-09, 3-[[(2-Chlor-6-methyl-phenyl)sulfonyl]-methyl]-N-[1-[5-(trifluormethyl)-pyridin-2-yl]-piperidin-4-yl]-[1,2,4]oxadiazol-5-carbonsäure amid] |
| 95% | Cc1cccc(Cl)c1S(=O)(=O)Cc1noc(C(=O)NC2CCC(N(C)C)CC2)n1 (centres unmarked) [CC-11, 3-[[(2-Chlor-6-methyl-phenyl)sulfonyl]-methyl]-N-(4-dimethylamino-cyclohexyl)-[1,2,4]oxadiazol-5-carbonsäure amid] |
| 99% | Cc1cc(S(=O)(=O)Cc2noc(C(=O)NC3CCC(N(C)C)CC3)n2)c(C)cc1Cl (centres unmarked) [CC-13, 3-[[(4-Chlor-2,5-dimethyl-phenyl)sulfonyl]-methyl]-N-(4-dimethylamino-cyclohexyl)-[1,2,4]oxa-diazol-5-carbonsäure amid] |
| 100% | Cc1cccc(Cl)c1S(=O)(=O)Cc1noc(C(=O)N(C)CCC2CCN(c3ccncc3)CC2)n1 [CC-14, 3-[[(2-Chlor-6-methyl-phenyl)sulfonyl]-methyl]-N-methyl-N-[2-(1-pyridin-4-yl-piperidin-4-yl)-ethyl]-[1,2,4]oxadiazol-5-carbonsäure amid] |
| 100% | Cc1cc(S(=O)(=O)Cc2noc(C(=O)N(C)CCC3CCN(c4ccncc4)CC3)n2)c(C)cc1Cl [CC-16, 3-[[(4-Chlor-2,5-dimethyl-phenyl)sulfonyl]-methyl]-N-methyl-N-[2-(1-pyridin-4-yl-piperidin-4-yl)-ethyl]-[1,2,4]oxadiazol-5-carbonsäure amid] |
| 100% | COc1cc(C)c(S(=O)(=O)Cc2noc(C(=O)NC3CCNCC3(C)C)n2)c(C)c1 (centres unmarked) [CC-17, N-(3,3-Dimethyl-piperidin-4-yl)-3-[[(4-methoxy-2,6-dimethyl-phenyl)sulfonyl]-methyl]-[1,2,4]oxa-diazol-5-carbonsäure amid] |
| 100% | COc1cc(C)c(S(=O)(=O)Cc2noc(CC(=O)NC3CCNCC3(C)C)n2)c(C)c1 (centres unmarked) [CC-18, N-(3,3-Dimethyl-piperidin-4-yl)-2-[3-[[(4-methoxy-2,6-dimethyl-phenyl)sulfonyl]-methyl]-[1,2,4]oxadiazol-5-yl]-acetamid] |
| 100% | COc1cc(C)c(S(=O)(=O)Cc2noc(C(=O)NC3CCC(N4CCCC4)CC3(C)C)n2)c(C)c1 (centres unmarked) [CC-21, N-(2,2-Dimethyl-4-pyrrolidin-1-yl-cyclohexyl)-3-[[(4-methoxy-2,6-dimethyl-phenyl)sulfonyl]-methyl]-[1,2,4]oxadiazol-5-carbonsäure amid] |

| Compound | inhibition at 10 µM |
| --- | --- |
| COc1cc(C)c(S(=O)(=O)Cc2noc(C(=O)N(C)CCC3CCN(c4ccncc4)CC3)n2)c(C)c1 [CC-10, 3-[[(4-Methoxy-2,6-dimethyl-phenyl)sulfonyl]-methyl]-N-methyl-N-[2-(1-pyridin-4-yl-piperidin-4-yl)-ethyl]-[1,2,4]oxadiazol-5-carbonsäure amid] | 100% |
| Cc1cccc(Cl)c1S(=O)(=O)Cc1noc(C(=O)NC2CCC(N3CCCC3)CC2(C)C)n1 (centres unmarked) [CC-20, 3-[[(2-Chlor-6-methyl-phenyl)sulfonyl]-methyl]-N-(2,2-dimethyl-4-pyrrolidin-1-yl-cyclohexyl)-[1,2,4]oxadiazol-5-carbonsäure amid] | 89% |
